Assay results taken from publication PMC7667655, “Targeted Covalent Inhibition of Plasmodium FK506 Binding Protein 35” (ACS Medicinal Chemistry Letters, 2020).
Converted amounts (≈) assume the structure as drawn. “Also recorded” adds a separate entry of the source.

Legend:
FKBP35 = molecular target: T1, FKBP35 (Plasmodium falciparum, UniProt Q8I4V8); assay: Time course of covalent modification by LC-MS; assay type: biochemical; conditions: for K, rate of FKBP35 consumption: 2250 nM inhibitor : 450 nM FKBP35, 23 °C, one phase decay fit; for K’, rate of covalent adduct formation: 2250 nM inhibitor : 450 nM FKBP35, exponential plateau fit
T1 construct: FKBP35 Q5 -A128; 6His-SUMO (N, cleaved yes); made in house; host or cells: E. coli BL21 DE3
T1 sequence (Q8I4V8 5-128): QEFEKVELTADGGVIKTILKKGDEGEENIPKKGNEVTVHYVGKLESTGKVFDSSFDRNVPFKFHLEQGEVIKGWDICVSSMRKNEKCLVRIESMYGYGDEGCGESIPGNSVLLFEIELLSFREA
Text: RT=5.2). B. Overlay of mass determinations from LC traces in (A). FBD35 only (black, m/z = […]
chromatogram corresponding to Figure 4c detecting the CAM -peptide […] at […]
m/z 855.8668. D. Mass spec chromatogram corresponding to Figure 4d detecting the CAM - […]
peptide […] at m/z 855.8670. E. Mass spec chromatogram corresponding to Figure 4e which was unable to detect the mass of the 1c-inclusion peptide. F. Mass spec chromatogram corresponding to Figure 4f detecting the 1c-inclusion peptide […]
Figure S2. Time course of covalent modification. In order to compare rates of covalent modification, compounds 1a-c, 2a, and 2c were incubated with FKBP35 in a 5:1 ratio (2250 nM inhibitor : 450 nM FKBP35) and FKBP35 consumption or modification determined by LC -MS. A.
The concentration of residual FKBP35 as a function of time. Data was fit to an exponential “one phase decay” model which was used to calculate the rate (K) and half -life (t1/2) of the reaction.
The loss of FKBP35 in the DMSO and 1b controls is likely due to adsorption onto the vial. B.
Concentration of covalent adduct as a function of time. Data was fit to an “exponential plateau” regression model, which was used to calculate the rate of formation (K’). Compound 1b, which […]
C. Tabulated rates calculated from the regressions in A and B. The rates of FKBP35 consumption correlate strongly with the rates of […]
(also on this page, place not known: -inclusion 1c 0 20 40 60 0 200 400 600 Time (hours) FKBP35 (nM) Consumption of FKBP35 1a 1b 1c 2a 2c DMSO 0 20 40 60 0 200 400 600 Time (hours) Covalent Adduct (nM) Formation of Covalent Adduct 1a 1b 1c 2a 2c A B) […]
(1 picture or pasted object on this page, not shown here)
Experiments were performed using 0.4 mg/mL concentration of wild -type or mutant protein (6 - 9 uM), with and without synthes ized compounds at 40 µM and 2% DMSO (V/V). The respective reference scans were run under identical DSC conditions and subtracted from each sample scan.
The program was run in a continuous acquisition mode from 25°C to 90°C at a rate of 120C/h The heat capacity curves and midpoint temperature (Tm) were analyzed using Origin 7.0 software.
Fluorescence Polarization
The fluorescent tracer SLFb-2PEG-TAMRA was diluted in DMSO to 100 nM (100x stock concentration). FKBP proteins were diluted in assay buffer (150 mM NaCl, 20 mM HEPES pH 7.5, 0.002% Triton X -100) to the indicated concentration. 100x DMSO tracer stock was added to the protein buffer solution to a 1X final concentration and 20 µL of the mixture was aliquoted into each well of a black 384 -well assay plate (No. 3820, Corning Life Sciences). The plate was briefly centrifuged to remove bubbles. Using a d300e digital dispenser (Tecan), competitive ligands (10 mM stock in DMSO) were aliquoted in triplicate in an 8 -point 3x dilution series (30 µM to 13.7 nM final concentra tion) and normalized to 2% total DMSO concentration. Following incubation at room temperature (RT) for one hour, fluorescence polarization was measured using an EnVision Multimode Plate Reader (PerkinElmer) with the TAMRA Dual -FP mirror and filter kit. […]
analyzed in GraphPad Prism 8 by fitting the data to the “One Site – Fit Ki” model to obtain the […]
Time Course Analysis of Covalent Inhibition
The following analy sis was performed as described on two different days, yielding similar results.
One replicate is shown for clarity. In 1.5 mL snap -top tubes, ligands 1a, 1b, 1c, 2a, and 2c were each diluted to 450 μM in DMSO to produce 200x stock solutions. In a separate 1.5 mL snap-top tube, isolated FKBP35 protein was diluted to 90 μM in the reaction buffer (150 mM NaCl, 20 mM HEPES pH = 7.5) to produce a 200x stock solution. In 2 mL glass mass spec vials, 5 μL of each 200x ligand solution was diluted in 990 μL reaction buffer. Immediately prior to injection of each t=0 time point, 5 μL of the 200x protein solution was added to the mass spec vial and mixed. Samples were analyzed using the Waters BioAccord LC-ToF (composed of an ACQUITY I -Class UPLC and […]

[1] = molecular target: T2, nLuc-tagged full length PfFKBP35 (Plasmodium falciparum, UniProt Q8I4V8); assay: NanoBRET cellular target engagement, nLuc-FKBP35; assay type: cell-based
T2 construct: nanoluciferase-tagged (nLuc) full length PfFKBP35 or nLuc-tagged FKBP12; expressed in transfected cells
T2 sequence (Q8I4V8 whole entry): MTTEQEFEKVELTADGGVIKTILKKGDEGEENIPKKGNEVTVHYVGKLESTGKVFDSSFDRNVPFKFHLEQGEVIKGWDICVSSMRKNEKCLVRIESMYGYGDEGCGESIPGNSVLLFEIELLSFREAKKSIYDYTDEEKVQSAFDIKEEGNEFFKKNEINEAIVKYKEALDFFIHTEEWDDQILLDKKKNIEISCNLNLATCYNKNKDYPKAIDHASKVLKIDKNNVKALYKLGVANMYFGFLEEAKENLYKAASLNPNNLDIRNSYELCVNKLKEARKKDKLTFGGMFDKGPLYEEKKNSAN

PBS solubility = conditions: pH 7.4

SMILES | covalent adduct formation (in words) (FKBP35; LC-MS time course) | IC50 [1] [nM] | solubility (PBS solubility) [µM] | K, rate of FKBP35 consumption (FKBP35) [h⁻¹] | K’, rate of covalent adduct formation (FKBP35) [h⁻¹]
CCC(=O)Nc1cccc([C@@H](CCc2ccc(OC)c(OC)c2)OC(=O)[C@@H]2CCCCN2C(=O)C(=O)C(C)(C)CC)c1 [1b] | no binding; also recorded: does not form any adduct | 876 | – | – | –
C=CC(=O)OCC(C)(C)C(=O)C(=O)N1CCCC[C@H]1C(=O)O[C@H](CCc1ccc(OC)c(OC)c1)c1ccccc1 [2c] | – | 854 | < 0.1 | 0.8871 | 0.9298
C=CC(=O)Nc1cccc([C@@H](CCc2ccc(OC)c(OC)c2)OC(=O)[C@@H]2CCCCN2C(=O)C(=O)C(C)(C)CC)c1 [1a] | – | 1230 | 0.31 (≈ 0.179 µg/mL) | 0.0724 | 0.05948
C=CC(=O)Nc1ccccc1[C@@H](CCc1ccc(OC)c(OC)c1)OC(=O)[C@@H]1CCCCN1C(=O)C(=O)C(C)(C)CC [1c] | – | – | 3.5 (≈ 2.03 µg/mL) | 0.1132 | 0.1128
